We go through eight compounds from US20050090471A1, “Inhibitors of cyclin-dependent kinases, compositions and uses related thereto” (GPC Biotech, Inc, priority 2001, published 2005).

As a reminder, the IC50 is the concentration that inhibits the measured activity by half.

The subject of one test is ADR-res. The test can be described thus: NCI panel (SRB assay), ADR-res cell line. It counts as cell-based, human. To be noted: 48 hours incubation with compound, unit not given. An excerpt:
The evaluation of compounds at the National Cancer Institute in their panel of 60 cell lines provides a wealth of information regarding efficacy in a wide range of tumor types and genetic backgrounds. Included within this panel are cell lines derived from leukemia, melanoma and cancers of the lung, colon, brain, ovary, breast, prostate and kidney. Use of this panel provides a measure of the efficacy of compounds in cells with alterations in many genes that are associated with neoplastic transformation including p53 and Her2/Neu as well as those involved in metabolism and those which confer multi-drug resistance. The data generated in these cell lines with the protocol described below can be used to evaluate the activity of compounds.
Cells were grown in RPMI-1640 10% FCS and plated in 96 well micro-titer plates at densities ranging from 5,000 to 40,000 cells/well. The plates were incubated for 24 hours at 37° C., 5% CO2 for 24 hours. Media containing twice the desired final concentration of the compound (5 doses spanning 4 logs) was prepared and 100 μl was added to each well containing 100 μl media plus cells to yield the desired final concentration. The plates were then incubated for an additional 48 hours.
The effect of the compound on cellular viability was determined with the Sulforhodamine B (SRB) assay which measures total protein. Cells were fixed with cold TCA to a fmal concentration of 10% and incubated at 4° C. for 60 minutes. The supernatant was discarded and the plates were washed five times with water and air-dried. SRB solution at […] in 1% acetic acid was added to each well and the plates were incubated for 10 minutes at room temperature. The plates were washed five times with 1% acetic acid and air-dried. The bound stain was solubilized with 10 mM trizma base and the absorbance was read on a plate reader at […].
Background: In SRB staining, fixed cells bind dye roughly in proportion to their protein.

The subject of another test is IMR90. The test can be described thus: Calcein AM viability assay, IMR90. It counts as cell-based. Conditions: IMR-90, normal human fibroblast, 72-hours incubation. Here is the method: (§1) The potency of Cdk inhibitors, as measured by loss of cellular viability, was determined with the Calcein AM assay (Molecular Probes). Calcein AM is a substrate of intracellular esterases, which is cleaved only in viable cells to generate a fluorescent product that can be quantified with a fluorescent plate reader. The fluorescent signal is proportional to the number of viable cells, and thus loss of signal in response to the exposure of cells to Cdk inhibitors correlates with a loss of viability. This assay distinguishes cell cycle arrest from loss of viability and is thus well suited for the evaluation of Cdk inhibitors.
(§2) Cellular IC50's were determined in the human colorectal carcinoma cell line, HCT-116, and the normal human fibroblast, IMR90. Protein adjusted IC50's were also determined in HCT-116. Results are presented in Table 3 below (HCT-116 (viability/protein adjusted) and IMR-90).
(§3) HCT-116 or IMR90 cells were recovered from sub-confluent plates by trypsinization and 1,000 or 4,000 cells, respectively, were plated in 24-well dishes and incubated overnight at 37° C., 5% CO2. HCT-116 cells were cultured in RPMI-1640, 10% FCS, and IMR90 cells were cultured in Minimum Essential Medium-alpha, 10% FCS. After overnight incubation to allow.adlierence, the media was aspirated from each well and replaced with media containing a test compound at a concentration from 0 to 250 nM, spanning a total of 7 doses. The plates were returned to the incubator and cultured for an additional 3 days. […] After 72-hours incubation with the test compound, the cells were washed twice with 1×PBS, talking special care to remove all residual buffer.
(§4) A 5 μM Calcein AM. solution was prepared by dissolving a 50 μg aliquot of Calcein (Molecular Probes catalog # C3100) in 50 μl DMSO. After the Calcein had completely dissolved (10 minutes at room temperature), it was diluted into 10 ml PBS. Calcein/PBS (0.5 ml) was added to each well. The plates were incubated for 75 minutes at 37° C. (protected from light) and the fluorescent signal was read on a fluorescent plate reader (excitation 485/20 and emission 530/25).

For a further test, the system named is arrested HCT-116 cells. The test can be described thus: Arrested cell assay (serum starvation), HCT-116. The test is classed as cell-based, human. Further details: unit not given here. To be noted: serum-starved arrested cells; unit not given. Here is the method:
Cyclin-dependent kinase (Cdk) activity is required to promote the progression of cells through distinct phases of the cell division cycle. The proliferation of normal, non-transformed, cells in culture requires the presence of growth factors, the removal of which, through serum deprivation, leads to a loss of Cdlc activity and consequent exit from the cell cycle as cells enter the quiescent phase, Go.
HCT-116 cells were plated in triplicate for each compound concentration to be tested in RPMI 1640 media containing 10% fetal calf serum at a density of either 200 or 2,000 cells per well in 24 well dishes, and incubated overnight at 37° C., 5% CO2. The media from the plate containing 2,000 cells per well was removed, cells were washed once with serum free media and 1 ml of serum free media was placed on cells. Tle plates containing cells both in the presence and absence of serum were incubated for 6 additional days.
To ensure that the cells had indeed exited the cell cyde upon serum withdrawal, the percentage of BrdU positive cells, indicative of those progressing through S phase, was determined in each experiment. For the purpose of this experiment, cellular viability was evaluated simultaneously with the use of SNARF-1, a fluorescent substrate of intracellular esterases which are only active in viable cells. Together, the evaluation of BrdU incorporation and SNARF-1 cleavage by flow cytometry provided an assessment of the viability of arrested cells on a single cell basis. For this analysis, the cells were stained with SNARF-1 as follows and then prepared for determination of BrdU incorporation as described above.
HCT-116 and IMR90 cells were plated at the density described below in T25 flasks in serum-containing media (RPMI-1640 or MEM-a with 10% FCS, respectively). After 24 hours of growth, the media was removed and, after washing the cells, replaced with serum-free media. • HCT-116+FCS 5,000 cells • HCT-116−FCS 100,000 cells • IMR90+FCS 100,000 cells • IMR90−FCS 200,000 cells
The IMR90 cells were grown for an additional 3 days and the HCT-116 cells were grown for an additional 6 days before pulsing with BrdU. A 50 μg aliquot of SNARF-1 (Molecular Probes catalog #C1272) was dissolved in 50 μl DMSO at room temperature for 10 minutes and then diluted into 10 ml PBS. The SNARF-1 was further diluted 1:64,000 before 200 μl was added to each tube of cells which had been cultured in the presence or absence of serum and pulsed with BrdU for 20 hours. The cells were incubated at 37° C. for 30 minutes and then washed with 3 ml of PBS.
These cells were then fixed and prepared for the measurement of BrdU incorporation as described above. The percentage of viable (FL-2) and BrdU positive (FL-1) cells was determined on a FACScan flow cytometer.

The subject of another test is HCT-116. The test is described as follows: Calcein AM viability assay, HCT-116. The test is classed as cell-based, human. Conditions: 72-hours incubation, plus 1 mg/ml alpha acidic glycoprotein and 45 mg/ml human serum albumin, read-out: HCT-116 IC50 protein adjusted. Here is the method:
as §1, §2, §3, §4

A value given as a limit tells only on which side of the number the result lay.

Regarding `Cl.Cl.Cl.O=C(Nc1cccc2c1C(=O)c1c-2n[nH]c1-c1ccc(OCCN(CCO)CCO)cc1)NN1CCOCC1` [H], in the test on ADR-res, the “NCI panel ADR-res” value is reported as >10. The half-maximal inhibitory concentration (IC50) with IMR90 was < 0.1 µM. Further, the “Arrested cell HCT” value with arrested HCT-116 cells is on record as <0.1.

Regarding `CN1CCN(NC(=O)Nc2cccc3c2C(=O)c2c-3n[nH]c2-c2ccc(OCCN3CCOCC3)cc2)CC1.Cl.Cl` [Q], the “NCI panel ADR-res” value in the test with ADR-res is listed as <10. Further, the figures for the IC50 with HCT-116 and in the test on IMR90 were < 1 µM and < 0.1 µM, respectively. For the same compound, in the test with arrested HCT-116 cells, the “Arrested cell HCT” value is recorded as <0.1.

Turning to `CC(C)N1CCN(CCOc2ccc(-c3[nH]nc4c3C(=O)c3c(NC(=O)NN5CCOCC5)cccc3-4)cc2)CC1.Cl.Cl.Cl` [E], the “NCI panel ADR-res” value in the test with ADR-res is <1. Further, the IC50 in the test with HCT-116 is < 1 µM; with IMR90 it was < 0.1 µM. Besides, in the test on arrested HCT-116 cells, the “Arrested cell HCT” value is reported as <0.1.

Take `CC(C)N1CCN(Cc2cc(-c3[nH]nc4c3C(=O)c3c(NC(=O)NN5CCOCC5)cccc3-4)ccc2O)CC1.Cl.Cl.Cl.Cl` [K]: the “NCI panel ADR-res” value with ADR-res is listed as <10. In addition, the IC50 was < 1 µM with HCT-116 and > 0.1 µM in the test with IMR90. The “Arrested cell HCT” value in the test on arrested HCT-116 cells was <0.01.

As for `CC(C)c1nn(-c2c(Cl)cccc2Cl)c2nc(Cc3ccc(O)c(CN4CCN(C(C)C)CC4)c3)[nH]c(=O)c12.Cl.Cl` [Compound C], the “NCI panel ADR-res” value in the test with ADR-res was <0.1. Moreover, in the test with IMR90, the IC50 is < 0.1 µM. Further, in the test on arrested HCT-116 cells, the “Arrested cell HCT” value is on record as <0.01.

In the case of `Cl.Cl.Cl.O=C(Nc1cccc2c1C(=O)c1c-2n[nH]c1-c1ccc(OCCN2CCCC2)cc1)NN1CCOCC1` [Compound I], in the test with ADR-res, the “NCI panel ADR-res” value is <1. For the same compound, the half-maximal inhibitory concentration (IC50) was < 1 µM in the test on HCT-116 and < 0.1 µM in the test on IMR90. Further, in the test on arrested HCT-116 cells, the “Arrested cell HCT” value is given as <0.1.

Consider `CCCN(CCOc1ccc(-c2[nH]nc3c2C(=O)c2c(NC(=O)NN4CCOCC4)cccc2-3)cc1)CC1CC1.Cl.Cl.Cl` [G], for which, in the test with ADR-res, the “NCI panel ADR-res” value is <1. In addition, the IC50 in the test on HCT-116 is < 1 µM; in the test on IMR90, < 0.1 µM. In addition, in the test with arrested HCT-116 cells, the “Arrested cell HCT” value is <0.1.

Turning to `CN1CCN(NC(=O)Nc2cccc3c2C(=O)c2c-3n[nH]c2-c2ccc(OCCN3CCCC3)cc2)CC1.Cl.Cl.Cl` [F], in the test with ADR-res, the “NCI panel ADR-res” value is listed as <1. In addition, in the test with IMR90, the IC50 was < 0.1 µM. Further, in the test on arrested HCT-116 cells, the “Arrested cell HCT” value is recorded as <0.1.
